# Measurements taken from ChEMBL document CHEMBL5365466, “Discovery of Triazolyl Derivatives of Cucurbitacin B Targeting IGF2BP1 against Non-Small Cell Lung Cancer” (J Med Chem, 2023).
# Assays:
# [1] = Antiproliferative activity against human L02 cells assessed as cell growth inhibition at 0.1 uM incubated for 72 hrs by SRB assay; format: toxicity, cell-based
# HCT-116 [2] = experiment: Antiproliferative activity against human HCT-116 cells assessed as cell growth inhibition at 0.1 uM incubated for 72 hrs by SRB assay; format: functional
# [3] = Antiproliferative activity against human L02 cells assessed as cell growth inhibition at 1 uM incubated for 72 hrs by SRB assay; format: toxicity, cell-based
# HCT-116 [4] = experiment: Antiproliferative activity against human HCT-116 cells assessed as cell growth inhibition at 1 uM incubated for 72 hrs by SRB assay; format: functional
Compound,"inhibition at 72 h, 0.1 µM [1]",inhibition at 0.1 µM (HCT-116 [2]),"inhibition at 72 h, 1 µM [3]",inhibition at 1 µM (HCT-116 [4])
CC(=O)OC(C)(C)/C=C/C(=O)[C@](C)(O)[C@H]1[C@H](O)C[C@@]2(C)[C@@H]3CC=C4[C@@H](C[C@H](OC(=O)c5ccco5)C(=O)C4(C)C)[C@]3(C)C(=O)C[C@]12C,20%,22.1%,69.2%,83.5%
CC(=O)OC(C)(C)/C=C/C(=O)[C@](C)(O)[C@H]1[C@H](OC(=O)/C=C/c2ccc(F)cc2)C[C@@]2(C)[C@@H]3CC=C4[C@@H](C[C@H](O)C(=O)C4(C)C)[C@]3(C)C(=O)C[C@]12C,7.68%,5.23%,67%,1.19%
CC(=O)OC(C)(C)/C=C/C(=O)[C@](C)(O)[C@H]1[C@H](O)C[C@@]2(C)[C@@H]3CC=C4[C@@H](C[C@H](OC(=O)c5cn(-c6ccc(C)cc6)nn5)C(=O)C4(C)C)[C@]3(C)C(=O)C[C@]12C,3.68%,27.9%,72.4%,88.1%
CC(=O)OC(C)(C)/C=C/C(=O)[C@](C)(O)[C@H]1[C@H](OC(=O)/C=C/c2ccc(C)cc2)C[C@@]2(C)[C@@H]3CC=C4[C@@H](C[C@H](O)C(=O)C4(C)C)[C@]3(C)C(=O)C[C@]12C,3.35%,5.73%,7.53%,4.99%
CC(=O)OC(C)(C)/C=C/C(=O)[C@](C)(O)[C@H]1[C@H](O)C[C@@]2(C)[C@@H]3CC=C4[C@@H](C[C@H](OC(=O)c5cccs5)C(=O)C4(C)C)[C@]3(C)C(=O)C[C@]12C,4.77%,3.99%,75.2%,95.2%
CC(=O)OC(C)(C)/C=C/C(=O)[C@](C)(O)[C@H]1[C@H](O)C[C@@]2(C)[C@@H]3CC=C4[C@@H](C[C@H](OC(=O)c5cn(-c6ccc(Cl)cc6)nn5)C(=O)C4(C)C)[C@]3(C)C(=O)C[C@]12C,12.5%,35.1%,72.6%,94%
COc1ccc(-n2cc(C(=O)O[C@H]3C[C@@H]4C(=CC[C@@H]5[C@@]4(C)C(=O)C[C@]4(C)[C@@H]([C@@](C)(O)C(=O)/C=C/C(C)(C)OC(C)=O)[C@H](O)C[C@@]54C)C(C)(C)C3=O)nn2)cc1,12.6%,49.4%,73.1%,92.1%
COc1ccc(/C=C/C(=O)O[C@H]2C[C@@H]3C(=CC[C@@H]4[C@@]3(C)C(=O)C[C@]3(C)[C@@H]([C@@](C)(O)C(=O)/C=C/C(C)(C)OC(C)=O)[C@H](OC(=O)/C=C/c5ccc(OC)cc5)C[C@@]43C)C(C)(C)C2=O)cc1,-2.33%,0.38%,0.89%,2.18%
COc1ccc(/C=C/C(=O)O[C@H]2C[C@@H]3C(=CC[C@@H]4[C@@]3(C)C(=O)C[C@]3(C)[C@@H]([C@@](C)(O)C(=O)/C=C/C(C)(C)OC(C)=O)[C@H](O)C[C@@]43C)C(C)(C)C2=O)cc1,-9.08%,5.28%,67.3%,79.4%
COc1ccc(/C=C/C(=O)O[C@@H]2C[C@@]3(C)[C@@H]4CC=C5[C@@H](C[C@H](O)C(=O)C5(C)C)[C@]4(C)C(=O)C[C@]3(C)[C@H]2[C@@](C)(O)C(=O)/C=C/C(C)(C)OC(C)=O)cc1,-3.17%,0.47%,47.4%,67.3%
CC(=O)OC(C)(C)/C=C/C(=O)[C@](C)(O)[C@H]1[C@H](O)C[C@@]2(C)[C@@H]3CC=C4[C@@H](C[C@H](OC(=O)c5cccnc5)C(=O)C4(C)C)[C@]3(C)C(=O)C[C@]12C,10.1%,19.9%,68.3%,82.4%
CC(=O)OC(C)(C)/C=C/C(=O)[C@](C)(O)[C@H]1[C@H](O)C[C@@]2(C)[C@@H]3CC=C4[C@@H](C[C@H](OC(=O)/C=C/c5ccc(C)cc5)C(=O)C4(C)C)[C@]3(C)C(=O)C[C@]12C,1.88%,0.24%,44.1%,55.6%
CC(=O)OC(C)(C)/C=C/C(=O)[C@](C)(O)[C@H]1[C@H](O)C[C@@]2(C)[C@@H]3CC=C4[C@@H](C[C@H](OC(=O)/C=C/c5ccccc5)C(=O)C4(C)C)[C@]3(C)C(=O)C[C@]12C,1.72%,1.46%,72.7%,86.8%
CC(=O)OC(C)(C)/C=C/C(=O)[C@](C)(O)[C@H]1[C@H](OC(=O)/C=C/c2ccccc2)C[C@@]2(C)[C@@H]3CC=C4[C@@H](C[C@H](OC(=O)/C=C/c5ccccc5)C(=O)C4(C)C)[C@]3(C)C(=O)C[C@]12C,0.97%,3.56%,11.7%,9.26%
CC(=O)OC(C)(C)/C=C/C(=O)[C@](C)(O)[C@H]1[C@H](OC(=O)/C=C/c2ccc(F)cc2)C[C@@]2(C)[C@@H]3CC=C4[C@@H](C[C@H](OC(=O)/C=C/c5ccc(F)cc5)C(=O)C4(C)C)[C@]3(C)C(=O)C[C@]12C,-13.1%,2.07%,6.72%,7.98%
CC(=O)OC(C)(C)/C=C/C(=O)[C@](C)(O)[C@H]1[C@H](OC(=O)/C=C/c2ccc(C)cc2)C[C@@]2(C)[C@@H]3CC=C4[C@@H](C[C@H](OC(=O)/C=C/c5ccc(C)cc5)C(=O)C4(C)C)[C@]3(C)C(=O)C[C@]12C,-13.3%,0.65%,8.01%,4.21%
CC(=O)OC(C)(C)/C=C/C(=O)[C@](C)(O)[C@H]1[C@H](OC(=O)/C=C/c2ccccc2)C[C@@]2(C)[C@@H]3CC=C4[C@@H](C[C@H](O)C(=O)C4(C)C)[C@]3(C)C(=O)C[C@]12C,1.86%,2.73%,13.2%,16.5%
CC(=O)OC(C)(C)/C=C/C(=O)[C@](C)(O)[C@H]1[C@H](O)C[C@@]2(C)[C@@H]3CC=C4[C@@H](C[C@H](OC(=O)/C=C/c5ccc(F)cc5)C(=O)C4(C)C)[C@]3(C)C(=O)C[C@]12C,-3.78%,1.53%,1.62%,87.6%
CC(=O)OC(C)(C)/C=C/C(=O)[C@](C)(O)[C@H]1[C@H](O)C[C@@]2(C)[C@@H]3CC=C4[C@@H](C[C@H](OC(=O)c5cn(-c6ccc(Br)cc6)nn5)C(=O)C4(C)C)[C@]3(C)C(=O)C[C@]12C,0.01%,15.6%,73.6%,93%
